Results published in patent US20080207596A1, “Novel compounds 329” (priority 2006, published 2008).

Target: T1, human active recombinant p38α-6His tagged (Homo sapiens, UniProt Q16539)
T1 construct: 6His
Test: P38 alpha enzyme assay (AlphaScreen, biotinylated-ATF2 substrate)
Format: biochemical
Settings: 4 hours pre-incubation at 37° C., 1 mM ATP added
Method: Enzyme assays were performed in polypropylene 96 well plates. The following solutions were added to each well; 10 μL of compound dilutions in assay buffer (20 mM HEPES pH 7.4, containing 20 mM magnesium acetate, 0.005% (w/v) Tween-20, 10 mM DTT) containing 1% (v/v) DMSO or assay buffer containing 1% (v/v) DMSO alone, 70 μL of assay buffer containing 36 nM substrate (biotinylated-ATF2) and 10 μL of an appropriate dilution of human active recombinant p38α-6His tagged. Depending on batch of p38, an appropriate dilution was typically a 5 nM solution to give a final enzyme concentration of 0.5 nM. At this stage, background control wells also received 50 μL of AlphaScreen quench buffer (10 mM HEPES pH 7.4 containing 100 mM EDTA, 0.2% (w/v) bovine serum albumin). The plate was covered, pre-incubated for 4 hours at 37° C. and the enzyme reaction initiated by addition of 10 μL 1 mM ATP. After incubation for a further 45 minutes at 37° C., the reaction was stopped by addition of 50 μL quench reagent and 50 μL of the quenched reaction mixture transferred to an opaque, white 96-well plate. Detection reagent, 25 μL of 10 mM HEPES pH 7.4 containing 100 mM EDTA, 0.2% (w/v) bovine serum albumin, 0.3 nM anti phosphoATF2 antibody and 25 μg/mL of AlphaScreen protein A acceptor and donor beads, was added to all wells in a darkened room, the plate sealed and left in the dark for between 5 and 24 hours before AlphaScreen readings were taken using a Perkin Elmer EnVision reader.

T1 sequence (Q16539 whole entry): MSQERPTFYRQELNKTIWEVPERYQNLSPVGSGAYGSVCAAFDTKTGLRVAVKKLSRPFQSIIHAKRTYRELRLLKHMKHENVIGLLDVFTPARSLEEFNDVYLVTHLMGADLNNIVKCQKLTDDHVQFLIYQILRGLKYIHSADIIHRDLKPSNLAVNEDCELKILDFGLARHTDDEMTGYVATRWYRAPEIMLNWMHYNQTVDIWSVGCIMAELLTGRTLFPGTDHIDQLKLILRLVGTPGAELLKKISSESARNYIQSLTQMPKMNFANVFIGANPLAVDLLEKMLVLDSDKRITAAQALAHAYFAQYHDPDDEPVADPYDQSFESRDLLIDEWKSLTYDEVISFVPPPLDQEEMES

| Structure (SMILES) | IC50 [nM] |
| --- | --- |
| Cc1ccc(NC(=O)c2cccc(-c3cnco3)c2)cc1-n1ccc2ccc(OCCCN3CCCC3)cc2c1=O [Example 11, N-{4-Methyl-3-[1-oxo-7-(3-pyrrolidin-1-ylpropoxy)isoquinolin-2(1H)-yl]phenyl}-3-(1,3-oxazol-5-yl)benzamide] | 0.794 |
| Cc1ccc(NC(=O)c2cccc(N3CCCCC3)c2)cc1-n1ccc2ccc(OCCN3CCCC3)cc2c1=O [Example 1, N-{4-Methyl-3-[1-oxo-7-(2-pyrrolidin-1-ylethoxy)isoquinolin-2(1H)-yl]phenyl}-3-piperidin-1-ylbenzamide] | 10 |
| Cc1ccc(NC(=O)c2ccnc(N3CCCC3)c2)cc1-n1ccc2ccc(OCCN3CCCC3)cc2c1=O [Example 5, N-{4-Methyl-3-[1-oxo-7-(2-pyrrolidin-1-ylethoxy)isoquinolin-2(1H)-yl]phenyl}-2-pyrrolidin-1-ylisonicotinamide] | 2 |
| Cc1ccc(NC(=O)c2ccnc(-c3cccs3)c2)cc1-n1ccc2ccc(OCCN(C)C)cc2c1=O [Example 9, N-{3-[7-[2-(dimethylamino)ethoxy]-1-oxoisoquinolin-2(1H)-yl]-4-methylphenyl}-2-(2-thienyl)isonicotinamide] | 0.2 |
